Broadly, the EC50 is the concentration needed to bring the measured effect to its halfway point. Read a low EC50 as an effect from little substance.

For the first test, the target named is Cell division control protein 42 homolog (Homo sapiens, UniProt P60953). The test is described as follows: inhibition of fluorescent GTP binding to wildtype Cdc42 – biochemical, pyrazoline analogs, multiplex bead flow cytometry, Ki, SAR follow-up (AID 2019).
Sequence of Cell division control protein 42 homolog (P60953 whole entry): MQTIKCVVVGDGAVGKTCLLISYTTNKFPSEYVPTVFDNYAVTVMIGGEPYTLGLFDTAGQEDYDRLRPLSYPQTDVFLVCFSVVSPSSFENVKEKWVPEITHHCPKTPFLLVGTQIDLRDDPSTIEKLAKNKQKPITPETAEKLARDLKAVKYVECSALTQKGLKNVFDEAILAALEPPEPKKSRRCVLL
Conditions: not given
(In flow cytometry, cells or beads pass a laser one at a time.)
`NS(=O)(=O)c1ccc(N2N=C(c3ccc(Cl)cc3)CC2c2ccccc2)cc1` (configuration not stated) displayed an EC50 of 3.32 µM.
`COc1ccc(C2CC(c3ccc(F)cc3)=NN2c2cccc(F)c2)cc1OC` (configuration not stated) showed an EC50 of 21 µM.
On the same count and under the same terms, as for `COc1ccc(C2CC(c3ccc(Cl)cc3)=NN2c2ccc(S(N)(=O)=O)cc2)cc1` (configuration not stated), the figure is 2.3 µM; as for `COc1ccc(C2CC(c3ccc(C)cc3)=NN2c2ccc(S(N)(=O)=O)cc2)cc1` (configuration not stated), 2.21 µM; as for `COc1ccc(C2CC(c3cccc(C(F)(F)F)c3)=NN2c2ccc(S(N)(=O)=O)cc2)cc1` (configuration not stated), 3.11 µM.
On the same count and under the same terms, as for `COc1ccc(C2CC(c3cccnc3)=NN2c2ccc(S(N)(=O)=O)cc2)cc1` (configuration not stated), the figure is 9.51 µM; as for `NS(=O)(=O)c1ccc(N2N=C(c3ccccc3)CC2c2ccc(Cl)cc2)cc1` (configuration not stated) [4-[3-(4-chlorophenyl)-5-phenyl-3,4-dihydropyrazol-2-yl]benzenesulfonamide], 2.76 µM; as for `COc1ccc(C2CC(c3ccccc3Cl)=NN2c2ccc(S(N)(=O)=O)cc2)cc1` (configuration not stated) [4-[5-(2-chlorophenyl)-3-(4-methoxyphenyl)-3,4-dihydropyrazol-2-yl]benzenesulfonamide], 2.59 µM.
The same measure, in the same setting: as for `COc1ccc(C2CC(c3cccc(F)c3)=NN2c2ccc(S(N)(=O)=O)cc2)cc1` (configuration not stated) [4-[5-(3-fluorophenyl)-3-(4-methoxyphenyl)-3,4-dihydropyrazol-2-yl]benzenesulfonamide], the figure is 2.86 µM; as for `COc1ccc(C2CC(c3cccc(OC)c3)=NN2c2ccc(S(N)(=O)=O)cc2)cc1` (configuration not stated) [4-[5-(3-methoxyphenyl)-3-(4-methoxyphenyl)-3,4-dihydropyrazol-2-yl]benzenesulfonamide], 1.46 µM; as for `COc1ccc(C2CC(c3ccc(F)cc3)=NN2c2ccc(S(N)(=O)=O)cc2)cc1` (configuration not stated) [4-[5-(4-fluorophenyl)-3-(4-methoxyphenyl)-3,4-dihydropyrazol-2-yl]benzenesulfonamide], 4.26 µM.
`O=S(=O)(O)c1ccc(N2N=C(c3ccccc3)CC2c2ccccc2)cc1` (configuration not stated) [UNM-0000305834] registered a 50% effective concentration (EC50) of 30 µM.

Staying with this test, now noted: inactive by the depositor's call.
`Cc1onc(-c2ccccc2)c1-c1ccc(S(N)(=O)=O)cc1` displayed a half-maximal effective concentration (EC50) of 30 µM. That is a double-digit micromolar value.
The same measure, in the same setting: as for `O=[N+]([O-])c1ccc([N+]2=N[C-](c3ccccc3)CC2c2ccccc2)cc1` (configuration not stated), the figure is 30 µM.
Still for that read-out and setting: next, `Brc1ccc(N2N=C(c3ccccc3)CC2c2ccccc2)cc1` (configuration not stated): 30 µM; `COc1ccccc1C1CC(c2ccccc2)=NN1c1ccccc1` (configuration not stated): 30 µM.
Same read-out and setting: next, `Clc1cccc(N2N=C(c3ccccc3)CC2c2ccccc2)c1` (configuration not stated): 30 µM.
As to `Clc1ccc(N2N=C(c3ccccc3)CC2c2ccccc2)cc1` (configuration not stated), it took 30 µM to reach a half-maximal effect (EC50).
As to `CC(=O)Oc1ccc(C2=NN(c3ccccc3)C(c3ccccc3)C2)cc1` (configuration not stated), the EC50 stood at 30 µM.
Regarding `O=C(O)c1ccc(N2N=C(c3ccccc3)CC2c2ccccc2)cc1` (configuration not stated), the concentration giving a half-maximal response (EC50) was determined as 30 µM.
Compound `COc1ccc(C2=NN(c3ccccc3)C(c3ccccc3C(F)(F)F)C2)cc1` (configuration not stated) had an EC50 of 34.4 µM. The EC50 values of the last two compounds are within 1.5-fold of each other.
Still for that read-out and setting: next, `O=S(=O)(c1ccc(N2N=C(c3ccccc3)CC2c2ccccc2)cc1)C(F)F` (configuration not stated): 0.231 µM; `CCc1ccc(C2=NN(c3ccc(S(N)(=O)=O)cc3)C(c3ccc(F)cc3)C2)cc1` (configuration not stated): 30 µM; `CN(C)c1ccc(C2C[C-](c3ccccc3)N=[N+]2c2ccc([N+](=O)[O-])cc2)cc1` (configuration not stated): 30 µM.
Still for that read-out and setting: as for `COc1ccc(C2CC(c3ccccc3)=NN2c2ccc(Cl)c(C(=O)O)c2)cc1` (configuration not stated), the figure is 30 µM; as for `COc1ccc(C2CC(c3cccc(N(C)C)c3)=NN2c2ccc(S(N)(=O)=O)cc2)cc1` (configuration not stated), 30 µM.
On the same count and under the same terms, next, `COc1ccc(C2CC(c3ccncc3)=NN2c2ccc(S(N)(=O)=O)cc2)cc1` (configuration not stated): 30 µM; `Fc1ccccc1C1CC(c2ccc(Br)cc2)=NN1c1ccc(Br)cc1` (configuration not stated) [2,5-bis(4-bromophenyl)-3-(2-fluorophenyl)-3,4-dihydropyrazole]: 30 µM; `COc1ccc(C2CC(c3ccc(F)cc3)=NN2c2cc(Cl)ccc2Cl)cc1` (configuration not stated) [2-(2,5-dichlorophenyl)-5-(4-fluorophenyl)-3-(4-methoxyphenyl)-3,4-dihydropyrazole]: 30 µM.
As to `COc1ccc(C2=NN(c3ccc(Cl)c(Cl)c3)C(c3ccc(OC)cc3)C2)cc1` (configuration not stated) [2-(3,4-dichlorophenyl)-3,5-bis(4-methoxyphenyl)-3,4-dihydropyrazole], the EC50 came to 30 µM.
For the compound `Fc1ccc(C2=NN(c3cccc(Br)c3)C(c3ccccc3)C2)cc1` (configuration not stated) [2-(3-bromophenyl)-5-(4-fluorophenyl)-3-phenyl-3,4-dihydropyrazole], the response was half-maximal at 30 µM (EC50).
The same measure, in the same setting: as for `COc1ccc(C2=NN(c3cccc(F)c3)C(c3ccc(OC)cc3)C2)cc1` (configuration not stated) [2-(3-fluorophenyl)-3,5-bis(4-methoxyphenyl)-3,4-dihydropyrazole], the figure is 30 µM.
For `COc1ccc(C2CC(c3ccccc3)=NN2c2ccc(Cl)c(C(=O)O)c2)cc1OC` (configuration not stated) [2-chloro-5-[3-(3,4-dimethoxyphenyl)-5-phenyl-3,4-dihydropyrazol-2-yl]benzoic acid], the response was half-maximal at 30 µM (EC50).
The same measure, in the same setting: as for `COc1ccc(C2=NN(c3cccc(F)c3)C(c3ccc(Cl)cc3)C2)cc1` (configuration not stated) [3-(4-chlorophenyl)-2-(3-fluorophenyl)-5-(4-methoxyphenyl)-3,4-dihydropyrazole], the figure is 30 µM.
The same measure, in the same setting: next, `COc1ccc(C2C[C-](c3ccccc3)N=[N+]2c2ccc([N+](=O)[O-])cc2)cc1` (configuration not stated) [3-(4-methoxyphenyl)-2-(4-nitrophenyl)-5-phenyl-3,4-dihydropyrazole]: 30 µM; `COc1ccc(C2CC(c3ccccc3)=NN2c2cccc(S(N)(=O)=O)c2)cc1` (configuration not stated) [3-[3-(4-methoxyphenyl)-5-phenyl-3,4-dihydropyrazol-2-yl]benzenesulfonamide]: 30 µM; `CN(C)c1ccc(C2CC(c3ccccc3)=NN2c2ccccc2)cc1` (configuration not stated) [4-(2,5-diphenyl-3,4-dihydropyrazol-3-yl)-N,N-dimethylaniline]: 30 µM.
The same measure, in the same setting: next, `NS(=O)(=O)c1ccc(N2N=C(c3ccccc3)CC2c2ccccc2)cc1` (configuration not stated) [4-(3,5-diphenyl-3,4-dihydropyrazol-2-yl)benzenesulfonamide]: 30 µM; `NS(=O)(=O)c1ccc(N2N=C(c3ccccc3)CC2c2ccccc2Br)cc1` (configuration not stated) [4-[3-(2-bromophenyl)-5-phenyl-3,4-dihydropyrazol-2-yl]benzenesulfonamide]: 30 µM.
`COc1ccc(C2CC(c3ccc(C(F)(F)F)cc3)=NN2c2ccc(S(N)(=O)=O)cc2)cc1` (configuration not stated) [4-[3-(4-methoxyphenyl)-5-[4-(trifluoromethyl)phenyl]-3,4-dihydropyrazol-2-yl]benzenesulfonamide] showed a half-maximal effective concentration (EC50) of 30 µM.
The same measure, in the same setting: next, `COc1ccc(C2CC(C)=NN2c2ccc(S(N)(=O)=O)cc2)cc1` (configuration not stated) [4-[3-(4-methoxyphenyl)-5-methyl-3,4-dihydropyrazol-2-yl]benzenesulfonamide]: 30 µM.
Same read-out and setting: next, `NS(=O)(=O)c1ccc(N2N=C(c3ccc(Br)cc3)CC2c2ccc(F)cc2)cc1` (configuration not stated) [4-[5-(4-bromophenyl)-3-(4-fluorophenyl)-3,4-dihydropyrazol-2-yl]benzenesulfonamide]: 30 µM.
The same measure, in the same setting: as for `COc1ccc(-c2cc(-c3ccccc3)nn2-c2ccc(S(N)(=O)=O)cc2)cc1` [4-[5-(4-methoxyphenyl)-3-phenylpyrazol-1-yl]benzenesulfonamide], the figure is 5.05 µM; as for `COc1ccc(C2CC(C3CCCCC3)=NN2c2ccc(S(N)(=O)=O)cc2)cc1` (configuration not stated) [4-[5-cyclohexyl-3-(4-methoxyphenyl)-3,4-dihydropyrazol-2-yl]benzenesulfonamide], 30 µM; as for `O=S(=O)(c1ccc(N2N=C(c3ccc(Br)cc3)CC2c2ccccc2)cc1)C(F)F` (configuration not stated) [5-(4-bromophenyl)-2-[4-(difluoromethylsulfonyl)phenyl]-3-phenyl-3,4-dihydropyrazole], 30 µM.
Compound `FC(F)(F)c1ccccc1C1CC(c2ccc(Br)cc2)=NN1c1ccccc1` (configuration not stated) [5-(4-bromophenyl)-2-phenyl-3-[2-(trifluoromethyl)phenyl]-3,4-dihydropyrazole] yielded an EC50 of 30 µM.
The same measure, in the same setting: as for `O=[N+]([O-])c1cccc(C2C[C-](c3ccc(F)cc3)N=[N+]2c2ccccc2)c1` (configuration not stated) [5-(4-fluorophenyl)-3-(3-nitrophenyl)-2-phenyl-3,4-dihydropyrazole], the figure is 30 µM; as for `Cc1ccc(-c2cc(C(F)(F)F)nn2-c2ccc(S(N)(=O)=O)cc2)cc1` [Celecoxib], 30 µM; as for `COc1ccc(C2CC(c3ccc(N(C)C)cc3)=NN2c2ccc(S(N)(=O)=O)cc2)cc1` (configuration not stated) [KUC103422N], 3.37 µM.
Same read-out and setting: as for `COc1ccc(C2CC(C(C)(C)C)=NN2c2ccc(S(N)(=O)=O)cc2)cc1` (configuration not stated) [KUC103450N], the figure is 30 µM; as for `COc1ccc(C2CC(c3ccccc3C(F)(F)F)=NN2c2ccc(S(N)(=O)=O)cc2)cc1` (configuration not stated) [KUC103474N], 30 µM; as for `Cc1ccccc1N1N=C(c2ccccc2)CC1c1ccc(N(C)C)cc1` (configuration not stated) [N,N-dimethyl-4-[2-(2-methylphenyl)-5-phenyl-3,4-dihydropyrazol-3-yl]aniline], 30 µM.
For `COc1ccc(C2CC(c3ccc(Br)cc3)=NN2c2ccccc2Cl)cc1` (configuration not stated) [UNM-0000305832], it took 30 µM to reach a half-maximal effect (EC50).
Same read-out and setting: next, `COc1ccc(C2=NN(c3ccccc3)C(c3ccc(Cl)cc3)C2)cc1` (configuration not stated) [UNM-0000305833]: 30 µM; `Cc1cccc(N2N=C(c3ccccc3)CC2c2ccccc2)c1` (configuration not stated) [UNM-0000305835]: 30 µM; `O=[N+]([O-])c1ccc([N+]2=N[C-](c3ccccc3)CC2c2ccc(O)cc2)cc1` (configuration not stated) [UNM-0000305838]: 30 µM.
On the same count and under the same terms, as for `CN(C)c1ccc(C2CC(c3ccc(Br)cc3)=NN2c2ccccc2)cc1` (configuration not stated) [UNM-0000305846], the figure is 30 µM.
The same measure, in the same setting: as for `CN(C)c1ccc(C2CC(c3ccc(Cl)cc3)=NN2c2ccccc2)cc1` (configuration not stated) [UNM-0000305847], the figure is 30 µM.
Compound `COc1ccc(C2=NN(c3ccccc3)C(c3ccc(OC)c(OC)c3C(=O)O)C2)cc1` (configuration not stated) [UNM-0000305848] gave an EC50 of 30 µM.
`Cc1ccccc1[N+]1=N[C-](c2ccccc2)CC1c1cccc([N+](=O)[O-])c1` (configuration not stated) [UNM-0000305854] displayed a concentration for a half-maximal effect (EC50) of 30 µM.
Same read-out and setting: next, `COc1ccccc1N1N=C(c2ccccc2)CC1c1ccccc1` (configuration not stated) [UNM-0000305855]: 30 µM.
The same measure, in the same setting: as for `O=[N+]([O-])c1cccc(C2C[C-](c3ccccc3)N=[N+]2c2ccccc2)c1` (configuration not stated) [UNM-0000305857], the figure is 30 µM.

For the origin of these results see BindingDB's records for doi:10.7270/Q2QJ7FRJ (Nmmlsc, 2009).
